# Calls of active or inactive are those of the source. No cut-off for these calls is given here.
# Assays:
# THP-1 = test: Cytotoxicity against human THP-1 cells assessed as inhibition of cell growth at 30 uM incubated for 40 hrs by celltiterglo assay; type: functional, cell-based
# [1] = AUClast in Swiss mouse plasma at 3 mg/kg, iv measured upto 24 hrs by LC-MS/MS analysis; type: ADME, organism-based; design: time < 24 hrs, dose 3 mg/kg, route iv
# Staphylococcus aureus = test: Antibacterial activity against multidrug-resistant Staphylococcus aureus ATCC 33592 assessed as bacterial growth inhibition incubated for 20 to 22 hrs by CLSI based analysis; type: functional; details: time 20-22 hrs
# Escherichia coli [2] = test: Antibacterial activity against Escherichia coli UT189 infected in Swiss albino mouse model of urinary tract infection assessed as log reduction in bacteremia in bladder at 10 mg/kg, iv pre-infected with bacteria for 24 hrs followed by compound treatment for every 24 hrs for 3 days; type: functional; details: time 3 day
# Pseudomonas aeruginosa [3] = test: Antibacterial activity against multidrug-resistant Pseudomonas aeruginosa PAO750 assessed as bacterial growth inhibition incubated for 20 to 22 hrs by CLSI based analysis; type: functional; details: time 20-22 hrs
# [4] = Ratio of drug concentration in mouse blood to plasma; type: ADME, cell-free
# Enterobacter cloacae = test: Antibacterial activity against multidrug-resistant Enterobacter cloacae BAA2341 assessed as bacterial growth inhibition incubated for 20 to 22 hrs by CLSI based analysis; type: functional; details: time 20-22 hrs
# Acinetobacter baumannii [5] = test: Antibacterial activity against multidrug-resistant Acinetobacter baumannii R831 assessed as bacterial growth inhibition incubated for 20 to 22 hrs by CLSI based analysis; type: functional; details: time 20-22 hrs
# Proteus mirabilis = test: Antibacterial activity against multidrug-resistant Proteus mirabilis ATCC 7002 assessed as bacterial growth inhibition incubated for 20 to 22 hrs by CLSI based analysis; type: functional; details: time 20-22 hrs
# Pseudomonas aeruginosa [6] = test: Antibacterial activity against multidrug-resistant Pseudomonas aeruginosa PAO1 assessed as bacterial growth inhibition incubated for 20 to 22 hrs by CLSI based analysis; type: functional; details: time 20-22 hrs
# [7] = Protein binding in mouse plasma assessed as free fraction; type: ADME, cell-free
# Escherichia coli [8] = test: Antibacterial activity against multidrug-resistant Escherichia coli MG1655 assessed as bacterial growth inhibition incubated for 20 to 22 hrs by CLSI based analysis; type: functional; details: time 20-22 hrs
# [9] = AUClast in Swiss mouse Kidney at 3 mg/kg, iv measured upto 24 hrs by LC-MS/MS analysis; type: ADME, organism-based; design: dose 3 mg/kg, time < 24 hrs, route iv
# Klebsiella pneumoniae [10] = test: Antibacterial activity against multidrug-resistant Klebsiella pneumoniae NCTC 13443 assessed as bacterial growth inhibition incubated for 20 to 22 hrs by CLSI based analysis; type: functional; details: time 20-22 hrs
# Escherichia coli [11] = test: Antibacterial activity against Escherichia coli UT189 infected in Swiss albino mouse model of urinary tract infection assessed as log reduction in bacteremia in urine at 10 mg/kg, iv pre-infected with bacteria for 24 hrs followed by compound treatment for every 24 hrs for 3 days; type: functional; details: time 3 day
# Klebsiella pneumoniae [12] = test: Antibacterial activity against Klebsiella pneumoniae ATCC 13883 infected in Swiss albino mouse thigh infection model at 10 mg/kg, iv measured after 1 hr; type: functional, organism-based
# Escherichia coli [13] = test: Antibacterial activity against […] assessed as bacterial growth inhibition incubated for 20 to 22 hrs by CLSI based analysis; type: functional; details: time 20-22 hrs
# [14] = Metabolic stability in mouse kidney assessed as parent compound remaining measured after 4 hrs by UPLC-MS analysis; type: ADME, tissue-based; details: read-out: Stability
# [15] = Volume of distribution at steady state in Swiss mouse at 3 mg/kg, iv measured upto 24 hrs by LC-MS/MS analysis; type: ADME, organism-based; details: in vivo, read-out: Vdss
# [16] = Aqueous solubility of compound at pH 4.5; type: physicochemical; details: buffer
# Klebsiella pneumoniae [17] = test: Antibacterial activity against multidrug-resistant Klebsiella pneumoniae NR-48977 assessed as bacterial growth inhibition incubated for 20 to 22 hrs by CLSI based analysis; type: functional; details: time 20-22 hrs
# [18] = Ratio of AUC in Lung to plasma in Swiss mouse at 3 mg/kg, iv measured upto 24 hrs by LC-MS/MS analysis; type: ADME, organism-based; details: read-out: Ratio AUC
# Acinetobacter baumannii [19] = test: Antibacterial activity against wild type Acinetobacter baumannii ATCC 19606 assessed as reduction in microbial growth incubated for 20 to 22 hrs by CLSI based analysis; type: functional; details: time 20-22 hrs
# Escherichia coli [20] = test: Antibacterial activity against Escherichia coli ATCC 35218 harboring SbmA assessed as reduction in microbial growth incubated for 20 to 22 hrs by CLSI based analysis; type: functional; details: time 20-22 hrs
# [21] = Protein binding in human plasma assessed as free fraction; type: ADME, cell-free
# [22] = Cmax in Swiss mouse kidney at 3 mg/kg, iv measured upto 24 hrs by LC-MS/MS analysis; type: ADME, organism-based; design: dose 3 mg/kg, time < 24 hrs, route iv
# Citrobacter freundii = test: Antibacterial activity against multidrug-resistant Citrobacter freundii ATCC 8090 assessed as bacterial growth inhibition incubated for 20 to 22 hrs by CLSI based analysis; type: functional; details: time 20-22 hrs
# [23] = Cmax in Swiss mouse lung at 3 mg/kg, iv measured upto 24 hrs by LC-MS/MS analysis; type: ADME, organism-based; design: time < 24 hrs, dose 3 mg/kg, route iv
# Escherichia coli [24] = test: Antibacterial activity against wild type Escherichia coli ATCC 35218 assessed as reduction in microbial growth incubated for 20 to 22 hrs by CLSI based analysis; type: functional; details: time 20-22 hrs
# [25] = Half life in Swiss mouse at 3 mg/kg, iv measured upto 24 hrs by LC-MS/MS analysis; type: ADME, organism-based; details: in vivo
# Escherichia coli [26] = test: Antibacterial activity against Escherichia coli ATCC 25922 infected in Swiss albino mouse thigh infection model at 10 mg/kg, iv measured after 1 hr; type: functional, organism-based
# Acinetobacter baumannii [27] = test: Antibacterial activity against multidrug-resistant Acinetobacter baumannii R835 assessed as bacterial growth inhibition incubated for 20 to 22 hrs by CLSI based analysis; type: functional; details: time 20-22 hrs
# Escherichia coli [28] = test: Antibacterial activity against Escherichia coli ATCC 35218 infected in Swiss albino mouse model of Septicaemia infection assessed as log reduction in Septicaemia in blood at 1 mg/kg , iv preincubated for 4 hrs followed by bacterial infection and measured after 4 hrs post infection; type: functional; details: time 8 hrs
# Escherichia coli [29] = test: Antibacterial activity against Escherichia coli ATCC 25922 infected in Swiss albino mouse model of Septicaemia infection assessed as log reduction in Septicaemia in blood at 0.1 to 10 mg/kg , iv preincubated for 4 hrs followed by bacterial infection and measured after 4 hrs post infection; type: functional; details: dose 0.1-10 mg/kg, time 8 hrs
# [30] = Drug excretion in urine of Swiss mouse at 3 mg/kg, iv measured upto 24 hrs by LC-MS/MS analysis; type: ADME, organism-based; details: read-out: Drug excretion
# Klebsiella pneumoniae [31] = test: Antibacterial activity against Klebsiella pneumoniae ATCC 13883 infected in Swiss albino mouse model of neutropenic lung infection at 10 mg/kg, iv pretreated for 1 hr followed by bacterial infection and measured after 5 hr post infection; type: functional, organism-based; details: time 6.0 hrs
# [32] = Cytotoxicity against human HEK cells assessed as inhibition of cell growth at 30 uM incubated for 40 hrs by celltiterglo assay; type: toxicity, cell-based
# Klebsiella pneumoniae [33] = test: Antibacterial activity against wild type Klebsiella pneumoniae ATCC 13883 assessed as reduction in microbial growth incubated for 20 to 22 hrs by CLSI based analysis; type: functional; details: time 20-22 hrs
# Klebsiella pneumoniae [34] = test: Antibacterial activity against multidrug-resistant Klebsiella pneumoniae G199 assessed as bacterial growth inhibition incubated for 20 to 22 hrs by CLSI based analysis; type: functional; details: time 20-22 hrs
# Escherichia coli [35] = test: Antibacterial activity against multidrug-resistant Escherichia coli UT189 assessed as bacterial growth inhibition incubated for 20 to 22 hrs by CLSI based analysis; type: functional; details: time 20-22 hrs
# Escherichia coli [36] = test: Antibacterial activity against multidrug-resistant Escherichia coli IR45 assessed as bacterial growth inhibition incubated for 20 to 22 hrs by CLSI based analysis; type: functional; details: time 20-22 hrs
smiles,measurement,setting,value
CO[C@@H](CNC(=O)[C@H](NC(=O)[C@H](O)[C@H](C)O)[C@H](O)c1cncn1C)[C@H](O)[C@H](O)C(=O)N(C)[C@@H](Cc1ccccc1)C(=O)NCC(=O)N[C@H](C(=O)N[C@@H](CO)C(=O)N[C@H](C(=O)N[C@H](C(=O)N[C@@H](CC(=O)O)C(=O)N1CCC[C@H]1C(=O)NCc1cc(=O)c(O)cn1O)C(C)(C)C)C(C)(C)O)C(C)(C)O,Activity,THP-1,inactive
same,AUC(0-t) at 24 h,[1],2860 ng·h/mL
same,MIC,Staphylococcus aureus,4 µg/mL
same,log(activity),Escherichia coli [2],3.1
same,MIC,Pseudomonas aeruginosa [3],32 µg/mL
same,blood plasma ratio,[4],4.5
same,MIC,Enterobacter cloacae,0.25 µg/mL
same,MIC,Acinetobacter baumannii [5],2 µg/mL
same,MIC,Proteus mirabilis,0.12 µg/mL
same,MIC,Pseudomonas aeruginosa [6],> 32 µg/mL
same,fraction unbound,[7],0.51
same,MIC,Escherichia coli [8],0.03 µg/mL
same,AUC(0-t) at 24 h,[9],7150 ng·h/mL
same,MIC,Klebsiella pneumoniae [10],2 µg/mL
same,log(activity),Escherichia coli [11],4.7
same,Activity,Klebsiella pneumoniae [12],Active
same,MIC,Escherichia coli [13],0.06 µg/mL
same,remaining at 4 h,[14],91%
same,Vd,[15],0.25 L/kg
same,solubility,[16],8100 µg/mL
same,MIC,Klebsiella pneumoniae [17],4 µg/mL
same,Kp at 24 h,[18],0.4
same,MIC,Acinetobacter baumannii [19],0.03 µg/mL
same,MIC,Escherichia coli [20],0.12 µg/mL
same,fraction unbound,[21],0.26
same,Cmax,[22],14200 ng/mL
same,MIC,Citrobacter freundii,2 µg/mL
same,Cmax,[23],2420 ng/mL
same,MIC,Escherichia coli [24],0.01 µg/mL
same,half-life,[25],15 min
same,Activity,Escherichia coli [26],Active
same,MIC,Acinetobacter baumannii [27],0.06 µg/mL
same,Activity,Escherichia coli [28],-3.8 log10CFU
same,log(activity),Escherichia coli [29],3
same,dose excreted at 24 h,[30],65%
same,Activity,Klebsiella pneumoniae [31],Active
same,Activity,[32],Non-Toxic
same,MIC,Klebsiella pneumoniae [33],0.03 µg/mL
same,MIC,Klebsiella pneumoniae [34],0.06 µg/mL
same,MIC,Escherichia coli [35],0.01 µg/mL
same,MIC,Escherichia coli [36],2 µg/mL

# From ChEMBL document CHEMBL5356971, “Optimization of the Antibacterial Spectrum and the Developability Profile of the Novel-Class Natural Product Corramycin” (J Med Chem, 2023)
